ChEMBL document CHEMBL6092220 (J Med Chem, 2024)
Active and inactive are the calls of the source. The calls are words filed in the database; no cut-off is given here.

Experiments:
[1] = biological target: T1, Protein cereblon/Signal transducer and activator of transcription 3 (Mus musculus) (UniProt P42227+Q8C7D2); assay: In-vivo PROTAC activity at STAT3/CRBN in female CB17 SCID mouse assessed as reduction STAT3 level liver at 10 mg/kg, iv measured at 48 hrs by Western blot analysis; assay type: functional, organism-based; design: scale not given: the % may be the effect or the level left
[2] = biological target: T1, Protein cereblon/Signal transducer and activator of transcription 3 (Mus musculus); assay: In-vivo PROTAC activity at STAT3/CRBN in female CB17 SCID mouse assessed as reduction STAT3 level spleen at 10 mg/kg, iv measured at 48 hrs by Western blot analysis; assay type: functional, organism-based; design: scale not given: the % may be the effect or the level left
[3] = Half life in ICR mouse at 5 mg/kg, iv; assay type: ADME, organism-based; conditions: in vivo
[4] = Cmax in ICR mouse at 5 mg/kg, iv; assay type: ADME, organism-based; conditions: in vivo
[5] = Half life in Beagle dog at 1 mg/kg, iv; assay type: ADME, organism-based, Canis lupus familiaris; conditions: in vivo
[6] = biological target: T2, Protein cereblon/Signal transducer and activator of transcription 3 (Homo sapiens, UniProt P40763+Q96SW2); assay: PROTAC activity at his-SUMO-tagged STAT3 (127 to 688 residues)/CRBN in human SU-DHL-1 cells assessed as reduction in STAT3 level incubated for 20 hrs by Western blot analysis; assay type: cell-based
[7] = Apparent permeability across apical to basolateral side in human Caco-2 cells; assay type: ADME, cell-based
[8] = Apparent permeability across basolateral to apical side in human Caco-2 cells; assay type: ADME, cell-based
[9] = Stability in mouse Hepatocyte assessed as half life; assay type: ADME, cell-based; conditions: hepatocytes
[10] = Stability in dog Hepatocyte assessed as half life; assay type: ADME, cell-based, Canis lupus familiaris; conditions: hepatocytes
[11] = Stability in Non human primate Hepatocyte assessed as half life; assay type: ADME, cell-based; conditions: hepatocytes
[12] = Stability in rat plasma assessed as half life; assay type: ADME, cell-free
[13] = Stability in dog plasma assessed as half life; assay type: ADME, cell-free, Canis lupus familiaris
[14] = Stability in Non human primate plasma assessed as half life; assay type: ADME, cell-free
[15] = Stability in dog plasma assessed as parent compound remaining at […]; assay type: ADME, cell-free, Canis lupus familiaris; conditions: read-out: Stability
Cytochrome P450 1A2 = Cytochrome P450 1A2 (Homo sapiens, UniProt P05177); assay: Inhibition of CYP1A2 (unknown origin); assay type: ADME
SU-DHL-1 = assay: PROTAC activity at STAT5/CRBN in human SU-DHL-1 cells assessed as reduction in STAT5 level upto 40 uM incubated for 20 hrs by Western blot analysis; assay type: cell-based
[16] = biological target: T3, Protein cereblon/Signal transducer and activator of transcription 4 (Homo sapiens, UniProt Q96SW2+Q14765); assay: PROTAC activity at STAT4/CRBN in human SU-DHL-1 cells assessed as reduction in STAT4 level incubated for 20 hrs by Western blot analysis; assay type: cell-based; conditions: dose <= 40.0 µM
[17] = biological target: Protein cereblon/Signal transducer and activator of transcription 2 (Homo sapiens) (UniProt Q96SW2+P52630); assay: PROTAC activity at STAT2/CRBN in human MOLM16 cells assessed as reduction in STAT2 level upto 40 uM incubated for 4 hrs by Western blot analysis; assay type: cell-based
MOLM16 = assay: PROTAC activity at STAT5/CRBN in human MOLM16 cells assessed as reduction in STAT5 level upto 40 uM incubated for 4 hrs by Western blot analysis; assay type: cell-based
[18] = biological target: Protein cereblon/Signal transducer and activator of transcription 6 (Homo sapiens) (UniProt P42226+Q96SW2); assay: PROTAC activity at STAT6/CRBN in human MOLM16 cells assessed as reduction in STAT6 level incubated for 4 hrs by Western blot analysis; assay type: cell-based
[19] = biological target: Protein cereblon/Signal transducer and activator of transcription 1-alpha/beta (Homo sapiens, UniProt P42224+Q96SW2); assay: PROTAC activity at STAT1/CRBN in human Pfeiffer cells transfected with STAT3 K658R mutant assessed as reduction in STAT1 level upto 40 uM incubated for 20 hrs by Western blot analysis; assay type: cell-based
[20] = biological target: T3, Protein cereblon/Signal transducer and activator of transcription 4; assay: PROTAC activity at STAT4/CRBN in human Pfeiffer cells transfected with STAT3 K658R mutant assessed as reduction in STAT4 level upto 40 uM incubated for 20 hrs by Western blot analysis; assay type: cell-based
[21] = biological target: T2, Protein cereblon/Signal transducer and activator of transcription 3; assay: PROTAC activity at his-SUMO-tagged STAT3 (127 to 688 residues)/CRBN in human PBMC cells assessed as reduction in STAT3 level upto 40 uM incubated for 20 hrs by Western blot analysis relative to control; assay type: cell-based; design: scale not given: the % may be the effect or the level left
[22] = biological target: Signal transducer and activator of transcription 3 (Homo sapiens, UniProt P40763); assay: Binding affinity to STAT3 (unknown origin) by FP assay
[23] = biological target: Signal transducer and activator of transcription 6 (Homo sapiens, UniProt P42226); assay: Binding affinity to STAT6 (unknown origin) by FP assay
[24] = biological target: Signal transducer and activator of transcription 1-alpha/beta (Homo sapiens) (UniProt P42224); assay: Binding affinity to STAT1 (unknown origin) assessed as maximum inhibition by FP assay relative to control
[25] = biological target: Signal transducer and activator of transcription 6 (Homo sapiens) (UniProt P42226); assay: Binding affinity to STAT6 (unknown origin) assessed as maximum inhibition by FP assay relative to control
[26] = biological target: T2, Protein cereblon/Signal transducer and activator of transcription 3; assay: PROTAC activity at his-SUMO-tagged STAT3 (127 to 688 residues)/CRBN in human MOLM16 cells assessed as reduction in STAT3 level at 10 uM incubated for 4 hrs by multiplexed quantitative proteomics analysis relative to control; assay type: cell-based; design: scale not given: the % may be the effect or the level left
[27] = biological target: T1, Protein cereblon/Signal transducer and activator of transcription 3 (Mus musculus); assay: In-vivo PROTAC activity at STAT3/CRBN in female CB17 SCID mouse assessed as STAT3 depletion liver at 5 mg/kg, iv measured upto 72 hrs by immunobloting analysis; assay type: functional, organism-based
[28] = biological target: T1, Protein cereblon/Signal transducer and activator of transcription 3 (Mus musculus); assay: In-vivo PROTAC activity at STAT3/CRBN in female CB17 SCID mouse assessed as reduction in STAT3 level spleen at 5 mg/kg, iv measured at 72 hrs by immunobloting analysis; assay type: functional, organism-based; design: scale not given: the % may be the effect or the level left
[29] = Drug concentration in female CB17 SCID mouse liver at 5 mg/kg, iv measured at 24 hrs by LC-MS/MS analysis; assay type: ADME, organism-based; conditions: read-out: Ct
[30] = Drug concentration in female CB17 SCID mouse liver at 5 mg/kg, iv measured at 72 hrs by LC-MS/MS analysis; assay type: ADME, organism-based; conditions: read-out: Ct
[31] = Drug concentration in female CB17 SCID mouse spleen at 5 mg/kg, iv measured at 24 hrs by LC-MS/MS analysis; assay type: ADME, organism-based; conditions: read-out: Ct
[32] = Drug concentration in female CB17 SCID mouse spleen at 5 mg/kg, iv measured at 72 hrs by LC-MS/MS analysis; assay type: ADME, organism-based; conditions: read-out: Ct
[33] = Drug concentration in female CB17 SCID mouse tumor at 5 mg/kg, iv measured at 1 hr by LC-MS/MS analysis; assay type: ADME, organism-based, Neoplasm; conditions: read-out: Ct
[34] = Drug concentration in female CB17 SCID mouse tumor at 5 mg/kg, iv measured at 3 hrs by LC-MS/MS analysis; assay type: ADME, organism-based, Neoplasm; conditions: read-out: Ct
[35] = Antitumor activity against human MOLM16 cells xenografted in mouse assessed as tumor regression at 10 to 20 mg/kg, iv; assay type: functional, MOLM-16; conditions: dose 10-20 mg/kg
[36] = Toxicity in mouse at 5 to 20 mg/kg, iv; assay type: organism-based; conditions: in vivo, dose 5-20 mg/kg

Compound: COC(=O)N1CC[C@H]2CC[C@@H](C(=O)N[C@@H](CCC(N)=O)C(=O)N[C@@H](Cc3ccc(F)c(F)c3)C(=O)N3CCC(CCC#Cc4cccc5c4CN(C4CCC(=O)NC4=O)C5=O)CC3)N2C(=O)[C@@H](NC(=O)c2cc3cc(C(F)(F)P(=O)(O)O)ccc3s2)C1 (some centres undefined)
- Activity [1]: > 90%
- Activity [2]: > 90%
- half-life [3]: 22.1 h
- Cmax [4]: 130 µg/mL
- half-life [5]: 2.3 h
- DC50 [6]: 0.01 µM
- Papp [7]: 0.14 10^-6 cm/s
- Papp [8]: 0.13 10^-6 cm/s
- t1/2 [9]: > 2 h
- t1/2 [10]: > 2 h
- half-life [11]: > 2 h
- t1/2 [12]: > 2 h
- t1/2 [13]: > 2 h
- half-life [14]: > 2 h
- remaining at 2 h [15]: 89%
- IC50 (Cytochrome P450 1A2): > 10 µM
- Activity (SU-DHL-1): inactive
- Activity [16]: Dose-dependent-effect
- Activity [17]: inactive
- Activity (MOLM16): inactive
- Activity [18]: inactive
- Activity [19]: inactive
- Activity [20]: inactive
- Activity [21]: > 95%
- IC50 [22]: 0.019 µM
- IC50 [23]: > 10 µM
- Imax [24]: 100%
- Imax [25]: 10%
- Activity [26]: 85%
- Activity [27]: Active
- Activity [28]: > 90%
- concentration at 24 h [29]: 1250 ng/g
- concentration at 72 h [30]: 598 ng/g
- concentration at 24 h [31]: 868 ng/g
- concentration at 72 h [32]: 568 ng/g
- concentration at 1 h [33]: 4810 ng/g
- concentration at 3 h [34]: 2830 ng/g
- Activity [35]: 100%
- Activity [36]: Non-toxic
